Where a name gives a salt, the structure may show the parent alone.
Biological target: T1, Glucocorticoid Receptor (GR) (Homo sapiens, UniProt P04150)
T1 construct: purchased Invitrogen P2816
T1 sequence (P04150 1-777): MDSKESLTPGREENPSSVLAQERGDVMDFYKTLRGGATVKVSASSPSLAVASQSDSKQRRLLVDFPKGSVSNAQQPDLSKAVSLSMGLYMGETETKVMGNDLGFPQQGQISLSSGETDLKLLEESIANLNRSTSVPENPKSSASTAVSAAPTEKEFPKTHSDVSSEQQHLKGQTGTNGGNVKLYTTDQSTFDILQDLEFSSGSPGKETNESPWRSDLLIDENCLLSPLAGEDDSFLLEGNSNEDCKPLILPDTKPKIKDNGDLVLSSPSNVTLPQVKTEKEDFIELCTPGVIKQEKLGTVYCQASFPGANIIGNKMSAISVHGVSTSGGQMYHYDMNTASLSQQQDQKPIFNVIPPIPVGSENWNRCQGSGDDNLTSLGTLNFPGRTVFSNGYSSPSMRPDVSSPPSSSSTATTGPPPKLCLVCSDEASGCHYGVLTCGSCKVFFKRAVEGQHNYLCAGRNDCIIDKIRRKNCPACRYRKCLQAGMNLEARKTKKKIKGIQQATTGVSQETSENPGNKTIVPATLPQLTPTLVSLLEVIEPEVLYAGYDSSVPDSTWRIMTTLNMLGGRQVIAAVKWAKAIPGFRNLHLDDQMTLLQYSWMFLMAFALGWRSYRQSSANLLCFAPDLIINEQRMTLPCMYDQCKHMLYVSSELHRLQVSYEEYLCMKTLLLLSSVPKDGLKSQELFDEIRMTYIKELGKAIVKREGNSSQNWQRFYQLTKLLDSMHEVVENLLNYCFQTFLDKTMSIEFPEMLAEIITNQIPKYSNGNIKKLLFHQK
Assay: GR receptor competitor assay by fluorescence polarization (Invitrogen GR competitor assay kit, cat No. P2816)
Conditions: 20 μM test compound solution, 10 μL per well plus 5 μL 4×GS1 and 5 μL 4×GR solution; recombinant human GR; 2 to 4 hours at room temperature; a ratio of 100% or more is indicated by 100%; read-out: GR Binding ratio (%)
Procedure, shortened: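 Recombinant human GR with fluorescent ligand Fluormone GS1 in pH 7.4 phosphate buffer with molybdate, EDTA, DTT, stabilizing peptide and 2% DMSO; compound added as 20 μM solution (pre-mix). FP read after 2–4 h at room temperature in the dark. Binding ratio (%) normalized between buffer and dexamethasone controls.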

Row | Compound | inhibition at 10 µM [%]
1 | COc1cc(OC(=O)C2CCCCC2)ccc1-c1ccc2c(c1COc1cc(F)ccc1C)C(C)=CC(C)(C)N2 [Compound 1-12, 6-(4-Cyclohexylcarbonyloxy-2-methoxyphenyl)-5-(5-fluoro-2-methylphenoxymethyl)-2,2,4-trimethyl-1,2-dihydroquinoline] | 100
2 | COc1cc(OC(=O)c2ccoc2)ccc1-c1ccc2c(c1COc1cc([N+](=O)[O-])ccc1C)C(C)=CC(C)(C)N2 [Compound 1-121, 6-[4-(Furan-3-ylcarbonyloxy)-2-methoxyphenyl]-5-(2-methyl-5-nitrophenoxymethyl)-2,2,4-trimethyl-1,2-dihydroquinoline] | 100
3 | COc1cc(OC(=O)c2cncnc2)ccc1-c1ccc2c(c1COc1cc(F)ccc1C)C(C)=CC(C)(C)N2 [Compound 1-78, 5-(5-Fluoro-2-methylphenoxymethyl)-6-[2-methoxy-4-(pyrimidin-5-ylcarbonyloxy)phenyl]-2,2,4-trimethyl-1,2-dihydroquinoline] | 100
4 | COc1cc(OC(=O)C(C)C)ccc1-c1ccc2c(c1COc1cc(F)ccc1C)C(C)=CC(C)(C)N2 [Compound 1-20, 5-(5-Fluoro-2-methylphenoxymethyl)-6-(4-isobutyryloxy-2-methoxyphenyl)-2,2,4-trimethyl-1,2-dihydroquinoline] | 100
5 | COc1cc(OC(=O)NC(C)C)ccc1-c1ccc2c(c1COc1cc(F)ccc1C)C(C)=CC(C)(C)N2 [Compound 6-21, 6-(4-Isopropylaminocarbonyloxy-2-methoxyphenyl)-5-(5-fluoro-2-methylphenoxymethyl)-2,2,4-trimethyl-1,2-dihydroquinoline] | 92
6 | COc1ccc([N+](=O)[O-])cc1OCc1c(-c2ccc(OC(=O)c3ccccc3Cl)cc2OC)ccc2c1C(C)=CC(C)(C)N2 [Compound 1-98, 6-[4-(2-Chlorobenzoyloxy)-2-methoxyphenyl]-5-(2-methoxy-5-nitrophenoxymethyl)-2,2,4-trimethyl-1,2-dihydroquinoline] | 100
7 | COc1cc(OC(=O)c2ccncc2)ccc1-c1ccc2c(c1COc1cc(F)ccc1C)C(C)=CC(C)(C)N2 [Compound 1-43, 5-(5-Fluoro-2-methylphenoxymethyl)-6-[2-methoxy-4-(pyridin-4-ylcarbonyloxy)phenyl]-2,2,4-trimethyl-1,2-dihydroquinoline] | 100
8 | COc1ccccc1C(=O)Oc1ccc(-c2ccc3c(c2COc2cc([N+](=O)[O-])ccc2C)C(C)=CC(C)(C)N3)c(OC)c1 [Compound 1-93, 6-[2-Methoxy-4-(2-methoxybenzoyloxy)phenyl]-5-(2-methyl-5-nitrophenoxymethyl)-2,2,4-trimethyl-1,2-dihydroquinoline] | 92
9 | COc1cc(OC(=O)CN)ccc1-c1ccc2c(c1COc1cc(F)ccc1C)C(C)=CC(C)(C)N2 [Compound 3-1, 6-(4-Aminoacetoxy-2-methoxyphenyl)-5-(5-fluoro-2-methylphenoxymethyl)-2,2,4-trimethyl-1,2-dihydroquinoline monohydrochloride] | 100
10 | COc1cc(OC(=O)C2CCN(C(=O)OC(C)(C)C)CC2)ccc1-c1ccc2c(c1COc1cc(F)ccc1C)C(C)=CC(C)(C)N2 [Compound 1-51, 6-[4-(1-t-Butoxycarbonylpiperidin-4-ylcarbonyloxy)-2-methoxyphenyl]-5-(5-fluoro-2-methylphenoxymethyl)-2,2,4-trimethyl-1,2-dihydroquinoline] | 91
11 | COc1cc(OC(=O)Nc2ccc(C#N)cc2)ccc1-c1ccc2c(c1COc1cc(F)ccc1C)C(C)=CC(C)(C)N2 [Compound 6-17, 6-[4-(4-Cyanophenylaminocarbonyloxy)-2-methoxyphenyl]-5-(5-fluoro-2-methylphenoxymethyl)-2,2,4-trimethyl-1,2-dihydroquinoline] | 90
12 | COc1cc(OC(=O)CNC(=O)OC(C)(C)C)ccc1-c1ccc2c(c1COc1cc(F)ccc1C)C(C)=CC(C)(C)N2 [Compound 1-2, 6-(4-t-Butoxycarbonylaminoacetoxy-2-methoxyphenyl)-5-(5-fluoro-2-methylphenoxymethyl)-2,2,4-trimethyl-1,2-dihydroquinoline] | 100
13 | COc1cc(OC(=O)c2cccnc2C)ccc1-c1ccc2c(c1COc1cc(F)ccc1C)C(C)=CC(C)(C)N2 [Compound 1-63, 5-(5-Fluoro-2-methylphenoxymethyl)-6-[2-methoxy-4-(2-methylpyridin-3-ylcarbonyloxy)phenyl]-2,2,4-trimethyl-1,2-dihydroquinoline] | 100

Further lines, results first:

Row | inhibition at 10 µM [%] | Compound
14 | 100 | COc1cc(OS(=O)(=O)CCC(F)(F)F)ccc1-c1ccc2c(c1COc1cc(F)ccc1C)C(C)=CC(C)(C)N2 [Compound 4-30, 5-(5-Fluoro-2-methylphenoxymethyl)-6-[2-methoxy-4-(3,3,3-trifluoroproprylsulfonyloxy)phenyl]-2,2,4-trimethyl-1,2-dihydroquinoline]
15 | 100 | COc1cc(OS(=O)(=O)C2CC2)ccc1-c1ccc2c(c1COc1cc(F)ccc1C)C(C)=CC(C)(C)N2 [Compound 4-27, 6-(4-Cyclopropylsulfonyloxy-2-methoxyphenyl)-5-(5-fluoro-2-methylphenoxymethyl)-2,2,4-trimethyl-1,2-dihydroquinoline]
16 | 100 | COc1cc(OC(=O)N2CCOCC2)ccc1-c1ccc2c(c1COc1cc(F)ccc1C)C(C)=CC(C)(C)N2 [Compound 6-18, 5-(5-Fluoro-2-methylphenoxymethyl)-6-[2-methoxy-4-(morpholin-4-ylcarbonyloxy)phenyl]-2,2,4-trimethyl-1,2-dihydroquinoline]
17 | 93 | COc1ccccc1OC(=O)Oc1ccc(-c2ccc3c(c2COc2cc(F)ccc2C)C(C)=CC(C)(C)N3)c(OC)c1 [Compound 5-5, 5-(5-Fluoro-2-methylphenoxymethyl)-6-[2-methoxy-4-(2-methoxyphenoxycarbonyloxy)phenyl]-2,2,4-trimethyl-1,2-dihydroquinoline]
18 | 90 | CCCCS(=O)(=O)Oc1ccc(-c2ccc3c(c2COc2cc(F)ccc2C)C(C)=CC(C)(C)N3)c(OC)c1 [Compound 4-14, 6-(4-Butylsulfonyloxy-2-methoxyphenyl)-5-(5-fluoro-2-methylphenoxymethyl)-2,2,4-trimethyl-1,2-dihydroquinoline]
19 | 100 | COc1cc(OS(=O)(=O)C(C)C)ccc1-c1ccc2c(c1COc1cc([N+](=O)[O-])ccc1C)C(C)=CC(C)(C)N2 [Compound 4-26, 6-(4-Isopropylsulfonyloxy-2-methoxyphenyl)-5-(2-methyl-5-nitrophenoxymethyl)-2,2,4-trimethyl-1,2-dihydroquinoline]
20 | 100 | CCCS(=O)(=O)Oc1ccc(-c2ccc3c(c2COc2cc(F)ccc2C)C(C)=CC(C)(C)N3)c(OC)c1 [Compound 4-11, 5-(5-Fluoro-2-methylphenoxymethyl)-6-(2-methoxy-4-propylsulfonyloxyphenyl)-2,2,4-trimethyl-1,2-dihydroquinoline]
21 | 92 | CCS(=O)(=O)Oc1ccc(-c2ccc3c(c2COc2cc(F)ccc2C)C(C)=CC(C)(C)N3)c(OC)c1 [Compound 4-12, 6-(4-Ethylsulfonyloxy-2-methoxyphenyl)-5-(5-fluoro-2-methylphenoxymethyl)-2,2,4-trimethyl-1,2-dihydroquinoline]

From US8440660B2 (Santen Pharmaceutical Co., Ltd., priority 2006, dated 2013)
